Data from ChEMBL document CHEMBL3352383, “Trends and exceptions of physical properties on antibacterial activity for Gram-positive and Gram-negative pathogens” (J Med Chem, 2014).
≈ marks a conversion by molar mass, not a printed value. Each block holds one compound with its values, some of them ahead of it.

What was measured:
Escherichia coli [1] = assay: Antibacterial activity against tolC-deficient Escherichia coli; format: functional; details: for MIC: Escherichia coli
Escherichia coli [2] = assay: Antibacterial activity against wild-type Escherichia coli; format: functional; details: for MIC: Escherichia coli
[3] = Lipophilicity, log D of the compound; details: octanol/water
Pseudomonas aeruginosa [4] = assay: Antibacterial activity against wild-type Pseudomonas aeruginosa; format: functional; details: for MIC: Pseudomonas aeruginosa
Pseudomonas aeruginosa [5] = assay: Antibacterial activity against MeXABCDXY-deficient Pseudomonas aeruginosa; format: functional; details: for MIC: Pseudomonas aeruginosa
Pseudomonas aeruginosa [6] = assay: Ratio of MIC for wild-type Pseudomonas aeruginosa to MIC for MeXABCDXY-deficient Pseudomonas aeruginosa; format: functional
[7] = Inhibition of Escherichia coli TrmD
[8] = Inhibition of Haemophilus influenzae TrmD
Haemophilus influenzae = assay: Antibacterial activity against acrB-deficient Haemophilus influenzae; format: functional
[9] = Inhibition of Haemophilus influenzae GlmU
[10] = Inhibition of Escherichia coli GlmU
Escherichia coli [11] = assay: Antibacterial activity against tolC-deficient Escherichia coli in presence of 2% HSA; format: functional; details: for MIC: Escherichia coli
Escherichia coli [12] = assay: Ratio of MIC for wild-type Escherichia coli to MIC for tolC-deficient Escherichia coli; format: functional
[13] = Inhibition of Pseudomonas aeruginosa MurC
Staphylococcus aureus [14] = assay: Antibacterial activity against wild-type Staphylococcus aureus; format: functional
Staphylococcus aureus [15] = assay: Antibacterial activity against wild-type Staphylococcus aureus in presence of 2% HSA; format: functional
Staphylococcus aureus [16] = assay: Ratio of MIC for wild-type Staphylococcus aureus in presence of 2% HSA to MIC for wild-type Staphylococcus aureus; format: functional
Escherichia coli [17] = assay: Ratio of MIC for […] tolC-deficient Escherichia coli in presence of 2% HSA to MIC for tolC-deficient Escherichia coli in presence of 2% HSA; format: functional

SMILES: N=C(N)SCc1ccc(Cl)c(Cl)c1
Activity (Escherichia coli [1]): >32 µg/mL | Activity (Escherichia coli [2]): >32 µg/mL | logD [3]: 1.4 | Activity (Pseudomonas aeruginosa [4]): 4 µg/mL | Activity (Pseudomonas aeruginosa [5]): 1 µg/mL

SMILES: N=C(N)SCc1ccc(Cl)cc1
MIC (Escherichia coli [2]): > 50 µM | MIC (Pseudomonas aeruginosa [4]): 12.5 µM | MIC (Pseudomonas aeruginosa [5]): 6.25 µM | Ratio (Pseudomonas aeruginosa [6]): 2

SMILES: COc1cc(OC)c(S(=O)(=O)N2c3ccccc3Oc3ccccc32)cc1NC(=O)CCC(=O)O
MIC (Escherichia coli [1]): > 64 µg/mL | MIC (Haemophilus influenzae): 32 µg/mL (≈ 64.2 µM) | IC50 [9]: 23 nM | IC50 [10]: 7 nM

SMILES: Fc1ccc(COc2cccc(-c3n[nH]cc3-c3ccncc3)c2)cc1
Activity (Escherichia coli [1]): <0.063 µg/mL | Activity (Escherichia coli [11]): 16 µg/mL | Activity (Escherichia coli [2]): 8 µg/mL | logD [3]: 4.3

SMILES: CC(C)(C)c1nc(-c2ccc3c(c2)OCCO3)c(-c2ccncc2)[nH]1
Activity (Escherichia coli [1]): 0.25 µg/mL | Activity (Escherichia coli [11]): 4 µg/mL | Activity (Escherichia coli [2]): 32 µg/mL | logD [3]: 3.22

SMILES: NC[C@H]1OB(O)c2ccccc21
MIC (Escherichia coli [1]): 12.5 µM | MIC (Escherichia coli [2]): 12.5 µM | MIC (Pseudomonas aeruginosa [4]): 6.25 µM | MIC (Pseudomonas aeruginosa [5]): 6.25 µM | Ratio (Escherichia coli [12]): 1 | Ratio (Pseudomonas aeruginosa [6]): 1

SMILES: CC[C@]1(C)C[C@@H](OC(=O)CSc2nnc(N)[nH]2)[C@]2(C)[C@H](C)CC[C@]3(CCC(=O)[C@H]32)[C@@H](C)[C@@H]1O [AZAMULIN]
MIC (Escherichia coli [1]): 4 µg/mL | MIC (Escherichia coli [11]): 8 µg/mL | MIC (Escherichia coli [2]): > 64 µg/mL | MIC (Staphylococcus aureus [14]): 2 µg/mL (≈ 4.18 µM) | MIC (Staphylococcus aureus [15]): 2 µg/mL | Ratio (Staphylococcus aureus [16]): 1 | Ratio (Escherichia coli [17]): 2

SMILES: CC(C)(O/N=C(\C(=O)N[C@@H]1C(=O)N2C(C(=O)[O-])=C(C[n+]3ccccc3)CS[C@H]12)c1csc(N)n1)C(=O)O [CEFTAZIDIME]
MIC (Escherichia coli [1]): 0.5 µM | MIC (Escherichia coli [2]): 0.8 µM | Ratio (Escherichia coli [12]): 1.6

SMILES: CCCCCC1=C/C(=C/c2[nH]c(-c3ccc[nH]3)cc2OC)N=C1C [PRODIGIOSIN]
MIC (Escherichia coli [1]): 1 µg/mL | MIC (Escherichia coli [11]): > 32 µg/mL | MIC (Escherichia coli [2]): 2 µg/mL | MIC (Staphylococcus aureus [14]): 2 µg/mL (≈ 6.18 µM) | MIC (Staphylococcus aureus [15]): 16 µg/mL | Ratio (Staphylococcus aureus [16]): 8 | Ratio (Escherichia coli [17]): 2

Continued, in another order:

MIC (Escherichia coli [1]): > 64 µg/mL | IC50 [7]: 17000 nM | IC50 [8]: < 5000 nM | MIC (Haemophilus influenzae): > 64 µg/mL
SMILES: Oc1ncnc2scc(-c3ccccc3)c12

MIC (Escherichia coli [1]): > 64 µg/mL | MIC (Haemophilus influenzae): > 64 µg/mL | IC50 [9]: 7800 nM | IC50 [10]: 2100 nM
SMILES: COc1cc(OC)c(S(=O)(=O)N2c3ccccc3CC2C)cc1NC(C)=O (stereo not drawn)

MIC (Escherichia coli [1]): > 64 µg/mL | logD [3]: 0.37 | IC50 [7]: 290 nM | IC50 [8]: 420 nM | MIC (Haemophilus influenzae): > 64 µg/mL
SMILES: O=C(NCc1ccc(CN2CC[C@H](O)C2)cc1)c1csc2nc[nH]c(=O)c12

logD [3]: 2.3
SMILES: CC(C)(O)[C@H](NC(=O)c1ccc(C#CC#CC2CC2)cc1)C(=O)NO
Activity (Escherichia coli [1]): <0.063 µg/mL | Activity (Escherichia coli [11]): <0.063 µg/mL | Activity (Escherichia coli [2]): <0.063 µg/mL | Activity (Pseudomonas aeruginosa [4]): 0.25 µg/mL | Activity (Pseudomonas aeruginosa [5]): <0.06 µg/mL

MIC (Escherichia coli [1]): 0.39 µM | MIC (Escherichia coli [2]): > 25 µM | MIC (Pseudomonas aeruginosa [4]): 25 µM | MIC (Pseudomonas aeruginosa [5]): 3.13 µM
SMILES: CO[C@H]1CN(c2nc(-c3cnc(N4CCN[C@H](C)C4)cn3)c(C(=O)O)s2)CC[C@H]1NC(=O)c1[nH]c(C)c(Cl)c1Cl
Ratio (Escherichia coli [12]): 64 | Ratio (Pseudomonas aeruginosa [6]): 8

MIC (Escherichia coli [1]): > 64 µg/mL | MIC (Escherichia coli [2]): > 64 µg/mL | logD [3]: 2.85 | MIC (Pseudomonas aeruginosa [4]): > 64 µg/mL | MIC (Pseudomonas aeruginosa [5]): > 64 µg/mL | IC50 [13]: 1000 nM | IC50 [7]: 1200 nM
SMILES: OCC1CCCCN1c1nc(Nc2cc(C3CC3)[nH]n2)c2cn[nH]c2n1 (stereo not drawn)

MIC (Escherichia coli [1]): 2 µg/mL | MIC (Escherichia coli [2]): > 64 µg/mL | logD [3]: 3.33 | MIC (Pseudomonas aeruginosa [4]): > 64 µg/mL | MIC (Pseudomonas aeruginosa [5]): 1.5 µg/mL | IC50 [13]: 1 nM | IC50 [7]: < 0.5 nM
SMILES: Cn1nc(Nc2nc(N[C@H](CO)c3ccccc3)nc3[nH]ncc23)cc1C(C)(C)C

MIC (Escherichia coli [1]): 0.5 µg/mL | MIC (Escherichia coli [11]): 6.4 µg/mL | MIC (Escherichia coli [2]): 16 µg/mL | MIC (Staphylococcus aureus [14]): 32 µg/mL (≈ 52.2 µM) | MIC (Staphylococcus aureus [15]): > 64 µg/mL
SMILES: Cc1cc(O)c(C(=O)N[C@@H](C(=O)N[C@@H]2C(=O)N3C(C(=O)O)=C(CSc4nnnn4C)CS[C@H]23)c2ccc(O)cc2)cn1 [CEFPIRAMIDE]
Ratio (Escherichia coli [17]): 128

MIC (Escherichia coli [1]): 6.25 µM | MIC (Escherichia coli [2]): 3.13 µM | MIC (Pseudomonas aeruginosa [4]): < 100 µM
SMILES: C[C@@H](O)[C@H]1C(=O)N2C(C(=O)O)=C([C@H]3CCCO3)S[C@H]12 [FAROPENEM]

MIC (Escherichia coli [1]): 0.08 µM | MIC (Escherichia coli [2]): 0.24 µM | MIC (Pseudomonas aeruginosa [4]): 5.2 µM | MIC (Pseudomonas aeruginosa [5]): < 0.08 µM
SMILES: CC1COc2c(N3CCN(C)CC3)c(F)cc3c(=O)c(C(=O)O)cn1c23 (stereo not drawn) [OFLOXACIN]
Ratio (Escherichia coli [12]): 3 | Ratio (Pseudomonas aeruginosa [6]): 62
